# From PubChem BioAssay (NCI)
#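 Method: 48-hour compound exposure of cells in 96-well plates, five concentrations, linear interpolation of endpoints. Here, GI50 denotes the concentration required for 50% inhibition of growth. TGI marks complete inhibition of growth.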
# What was measured:
# Assay in all cases: NCI anticancer screen, dose series, 48 h
# [1] = test system: HL-60(TB) leukemia
# [2] = test system: IGROV1 ovarian
# [3] = test system: KM12 colon
# [4] = test system: OVCAR-5 ovarian
# [5] = test system: SF-539 CNS
# [6] = test system: K-562 leukemia
# [7] = test system: RPMI-8226 leukemia
# [8] = test system: T-47D breast
SMILES,TGI [1] [µM],TGI [2] [µM],TGI [3] [µM],TGI [4] [µM],TGI [5] [µM],TGI [6] [µM],TGI [7] [µM],TGI [8] [µM],GI50 [1] [µM],GI50 [2] [µM],GI50 [6] [µM],GI50 [3] [µM],GI50 [4] [µM],GI50 [7] [µM],GI50 [5] [µM],GI50 [8] [µM]
NC(=S)N/N=C(\Cc1nc2ccc(Cl)cc2[nH]c1=O)C(=O)Nc1ccc(Cl)cc1,> 100,> 100,> 100,> 100,> 100,–,–,–,–,–,–,–,–,–,–,–
COc1c(OC)c(OC)c2c(c1OC)c(=O)c1ccccc1n2C,> 100,> 100,> 100,> 100,> 100,> 100,> 100,> 100,–,–,–,–,–,–,–,–
CC(=O)[C@@]1(O)CC[C@H]2[C@@H]3C[C@H](C)C4=CC(=O)CC[C@]4(C)[C@H]3[C@@H](O)C[C@@]21C,> 100,> 100,> 100,> 100,> 100,> 100,> 100,> 100,–,–,–,–,–,–,–,–
CC1(C)N=C(N)N=C(N)N1c1ccc(OCCCCOc2ccc(S(=O)(=O)F)cc2)c(Cl)c1,13.7,21.8,11.7,22.7,8.39,15.8,12,13.2,0.0595,0.0602,0.0597,0.279,0.302,0.116,0.398,1.14
O=NNc1ccc(S(=O)(=O)c2ccccc2)cn1,–,> 100,> 100,> 100,> 100,> 100,–,> 100,–,–,–,–,–,–,–,–
N#Cc1nc2c(S(=O)(=O)c3ccccc3)c(N)n(Cc3cccnc3)c2nc1C#N,> 100,–,> 100,> 100,23.7,> 100,> 100,52.1,3.71,–,> 100,> 100,> 100,> 100,3.25,5.8
Cc1ccccc1N=Nc1ccc(NC(=O)c2ccnn2C)c(C)c1,–,> 100,> 100,> 100,> 100,–,> 100,> 100,–,25.1,–,> 100,> 100,3.41,36.5,9.9
COc1ccc(/C=C\c2cc(OC)c(OC)c(OC)c2)cc1OC(=O)c1cccc(Cn2cc(CCOC(=O)[C@H](N)Cc3cn(C)c4ccccc34)nn2)c1,–,> 100,16.5,> 100,0.272,> 22.4,2.23,–,< 0.01,< 0.0136,< 0.01,< 0.01,0.0886,< 0.01,< 0.01,–
O=C1NC(O)C(c2c[nH]c3ccccc23)=C1c1c[nH]c2ccccc12 (stereo not given),> 25,> 25,> 25,> 25,> 25,> 25,> 25,> 25,> 25,> 25,> 21.9,> 25,> 25,> 25,> 25,> 25
Cc1cc2nc3c4cc(N)ccc4n(CCN(C)C)c3nc2cc1C,4.24,4.62,7.11,9.66,4.66,8.98,4.86,12.3,0.947,0.5,0.421,0.882,0.914,0.606,0.839,1.71
COc1cc(-c2nn(-c3cccc(NC(=O)Nc4cc(C(F)(F)F)cc(C(F)(F)F)c4)c3)cc2-c2ccncc2)ccc1Cl,11.9,2.34,2.09,3.54,1.75,3.03,7.74,26.7,0.551,0.592,0.279,0.412,1.09,0.203,0.836,1.03
O=C(Nc1cc(Cl)cc(Cl)c1)c1ccc(NC2=C(Cl)C(=O)N(Cc3ccc(Cl)cc3Cl)C2=O)cc1,–,7.17,47.7,> 100,25.3,10.7,10.9,73.9,–,2.15,1.33,13.6,> 100,2.53,6.94,3.12
COC(=O)C1=C(C(=O)ON)C2C=CC1(C(Cc1ccccc1)Nc1ccccc1)O2 (stereo not given),10.1,3.49,30,12.1,23.7,–,6.51,3.25,2.89,1.87,–,15.1,3.27,2.33,11.5,1.46
NC(N)=N/N=C\c1cccc(OCc2ccccc2)c1,6.35,23.8,8.33,33.7,20,16.1,8.17,3.99,2.66,6.07,3.87,2.41,11.5,2.33,5.11,1.55
CC(C)[C@H](CO)Nc1nc(Nc2ccc(C(=O)NCCNS(=O)(=O)c3cccc4c(N(C)C)cccc34)c(Cl)c2)c2ncn(C(C)C)c2n1,7.43,> 25.1,2.72,> 100,4.39,> 100,5.63,> 82.5,2.65,2.62,3.92,0.447,5.18,2.14,1.68,2.93
O=C1C(Cl)=C(Nc2cccc(Cl)c2)C(=O)N1Cc1ccccc1Cl,19.6,73.8,49.6,–,15,8.91,26,–,3.15,12.3,1.87,10.7,–,1.82,3.8,–
O=S1CCS(=O)CCS(=O)CC1 (stereo not given),> 100,> 100,> 100,> 100,> 100,> 100,–,> 100,–,–,–,–,–,–,–,–
Fc1ccc2c(c1)c(-c1nc(-c3c[nH]c4ncccc34)cs1)cn2CCCN1CCCCC1,–,–,–,3.1,3.1,3.6,–,–,–,–,1.72,–,1.61,–,1.67,–
